BBB activity data for 15 compounds are collected here from patent publication US20230107642A1 (Erasca, Inc., priority 2020, published 2023).

Each structure is given as a SMILES string.

This data set can be described thus: Determination of total drug concentration in rat brain (BBB penetration). The format is in vivo. To be noted: male SD rat, 2 mg/kg IV infusion for 4 hours, brain collected at end of 4 hours. On the procedure: BB. Example 9: Determination of Total Drug Concentration in Rat Brain
In Vivo Experimental Procedures
Infuse male SD rat at 2 mg/kg dose for 4 hours through IV administration route. Collect brain tissues at the end of 4 hours.
Sample Preparation Procedures
Dilute brain tissue by adding homogenization solvent (1:4, w/v). Homogenize diluted brain tissue samples. Extract analyte by adding organic solvent (1:4, v/v) with spiked internal standard. Vortex and centrifuge the samples. Remove supernatant and dilute with HPLC compatible solvent (1:3, v/v).
Inject diluted extract into LC-MS/MS system using reversed phase high performance liquid chromatography coupled with electrospray ionization and selected reaction monitoring. Determine the total drug concentration in brain samples by quantitating against the standard curve prepared using the same matrix.
The following data provides blood brain barrier (BBB) penetration activity for a selection of inventive compounds where were directly compared to sotorasib and adagrasib (concentration in brain measured in ng/g).
Compounds that were measured as having a total concentration in the brain of at least 60 ng/g are indicated as “+”.
For `C=CC(=O)N1[C@H](C)CN(c2nc(=O)n3c4c(c(-c5ccc(F)cc5)c(C(F)(F)F)cc24)SC[C@@H](OCC2CC2)C3)C[C@@H]1C` [Example 13-48], the BBB activity entry is “− (Compounds that did not meet this threshold are indicated as “−”)”.
In the case of `C=CC(=O)N1[C@H](C)CN(c2nc(=O)n3c4c(c(-c5cc(Cl)c(F)cc5F)c(C(F)(F)F)cc24)SC[C@@H]3COCOC)C[C@@H]1C` [Example 13-50] it was “− (Compounds that did not meet this threshold are indicated as “−”)”; in that of `C=CC(=O)N1C[C@H](C)N(c2nc(=O)n3c4c(c(-c5ccc(F)cc5F)c(C(F)(F)F)cc24)SCC2(COC2)C3)C[C@H]1C` [Example 13-51], “− (Compounds that did not meet this threshold are indicated as “−”)”.
As to `C=CC(=O)N1C[C@H](C)N(c2nc(=O)n3c4c(c(-c5ccc(F)cc5)c(Cl)cc24)OCC3CN(C)C)C[C@H]1C` (stereo partly drawn) [Example 13-53], the BBB activity entry is “− (Compounds that did not meet this threshold are indicated as “−”)”.
In the case of `[2H]C1([2H])N(C(=O)C=C)C([2H])([2H])C([2H])([2H])N(c2nc(=O)n3c4c(c(-c5cc(Cl)c(F)cc5F)c(C(F)(F)F)cc24)SCC2(COC2)C3)C1([2H])[2H]` [Example 13-54] it was “− (Compounds that did not meet this threshold are indicated as “−”)”; in that of `C=CC(=O)N1[C@H](C)CN(c2nc(=O)n3c4c(c(-c5ccc(F)cc5)c(C(F)(F)F)cc24)SC[C@@H](OCC)C3)C[C@@H]1C` [Example 13-55], “− (Compounds that did not meet this threshold are indicated as “−”)”.
In the case of `C=CC(=O)N1C[C@H](C)N(c2nc(=O)n3c4c(c(-c5cc(Cl)c(F)cc5F)c(Cl)cc24)SC[C@@H]3CN2CCN(CC(F)F)CC2)C[C@H]1C` [Example 13-56] it was “− (Compounds that did not meet this threshold are indicated as “−”)”; in that of `C=CC(=O)N1C[C@H](C)N(c2nc(=O)n3c4c(c(-c5cc(F)c(F)cc5F)c(C(F)(F)F)cc24)SC[C@@H]3CN2CCN(CC(F)F)CC2)C[C@H]1C` [Example 13-57], “− (Compounds that did not meet this threshold are indicated as “−”)”; in that of `C=CC(=O)N1C[C@H](C)N(c2nc(=O)n3c4c(c(-c5ccc(F)cc5F)c(Cl)cc24)OC[C@H]3CC2CCN(CC(F)F)CC2)C[C@H]1C` [Example 13-59], “− (Compounds that did not meet this threshold are indicated as “−”)”.
In the case of `C=CC(=O)N1CCN(c2nc(=O)n3c4c(c(-c5ccc(F)cc5F)c(Cl)cc24)SCCC3)[C@@H](C)C1` [Example 13-61] it was “− (Compounds that did not meet this threshold are indicated as “−”)”; in that of `C=CC(=O)N1[C@H](C)CN(c2nc(=O)n3c4c(c(-c5cc(Cl)c(F)cc5F)c(C(F)(F)F)cc24)CC[C@@H]3CC2CCC3(CC2)COC3)C[C@@H]1C` [Example 13-63], “− (Compounds that did not meet this threshold are indicated as “−”)”; in that of `C=CC(=O)N1[C@H](C)CN(c2nc(=O)n3c4c(c(-c5ccc(F)cc5)c(C(F)(F)F)cc24)SC[C@@H](OCCF)C3)C[C@@H]1C` [Example 13-64], “− (Compounds that did not meet this threshold are indicated as “−”)”.
As to `C=CC(=O)N1[C@H](C)CN(c2nc(=O)n3c4c(c(-c5ccc(F)cc5)c(C(F)(F)F)cc24)SC[C@@H](COC)C3)C[C@@H]1C` [Example 13-65], the BBB activity result is “− (Compounds that did not meet this threshold are indicated as “−”)”.
In the case of `C=CC(=O)C1[C@H](C)CN(c2nc(=O)n3c4c(c(-c5ccc(F)cc5)c(C(F)(F)F)cc24)SC[C@@H](OC)C3)C[C@@H]1C` (stereo partly drawn) [Example 13-66] it was “− (Compounds that did not meet this threshold are indicated as “−”)”; in that of `C=CC(=O)N1CCN(c2nc(=O)n3c4c(c(-c5c(F)cc(F)c6ccccc56)c(Cl)cc24)SCC3)[C@@H](C)C1` [Example 13-67], “− (Compounds that did not meet this threshold are indicated as “−”)”.
